Data reported in patent US10144727B2, “Deoxynojirimycin derivatives and methods of their using” (priority 2013, dated 2018).
“Also recorded” adds a separate entry of the source.

Tests used:
[1] = test system: influenza A/Texas/36/91 (H1N1); assay: Efficacy of selected iminosugars in mice; Influenza A/Texas/36/91 (H1N1) challenge; type: in vivo, BALB/c mice; details: for Survival versus untreated/vehicle control group / Survival rate / MTD: 100 mg/kg oral TID for 10 days; for Survival rate / MTD: infected ~1 LD90
Experimental: (§1) Study Summary: This study analyzed the toxicity and efficacy of UV-8, UV-9, UV-10, UV-11, and UV-12 in mice during an H1N1 influenza infection. […] In the current study, we examined delivery doses of UV-4B. UV-8, UV-9, UV-10. UV-11 and UV-12 at 100 mg/kg, delivered ter in die by the oral route (intragastric via oral gavage or IG. Small groups (n=3) that were included to examine gross toxicity received 100 mg/kg of the iminosugars but without a viral challenge. UV-4B, UV-8. UV-9, UV-10. UV-11 or UV-12 was delivered to the animals starting at 1 hour before intranasal infection (IN) with ˜1 LD90 of influenza A/Texas/36/91 (H1N1). Animals were then treated TID for 10 days total (days 0-9 post infection). Efficacy was evaluated by comparing survival, temperature changes, and weight gain/loss to an infected untreated control group.
This study aimed to determine the efficacy of UV-8. UV-9, UV-10, UV-11, and UV-12 when administered orally at 100 mg/kg TID against a lethal intranasal infection with influenza virus A/Texas/36/91 (H1N1) in the BALB/c mouse model. In addition to the efficacy arm, each of the iminosugars was tested in a small group of animals with the same treatment regimen (100 mg/kg, oral gavage, TID) in the absence of a viral infection to examine gross toxicity of each analog (general health, weight, temperature, and mortality evaluations).
UV-8, -9, -10, -11, -12, and UV-4B were prepared in H2O at 20 mg/ml for a delivery dose of 100 mg/kg, assuming ˜20 g mice given 0.1 mL of compound. Groups of BALB/c mice were treated at one hour before (−1 h) intranasal infection with ˜1 LD90 of INFV A/Texas/36/91 (H1N1) and then compounds were administered three times daily for a total of 10 days (see Table 12 for study design summary). Weights, temperature, and survival were monitored and used for evaluation of protective efficacy and toxicity of each analog.
3. The groups of mice challenged with influenza were anesthetized with 5% Isofluorene and maintained at 2.5% prior to intranasal inoculation with ˜1 LD90 of INFV in 100 μL PBS.
1. Mice were treated starting at 1 hour before infection with 100 μL of compound in H2O (see Table 12 for dosing regimens) three times a day for 10 days total with 100 mg/kg of UV-4B, UV-8, UV-9, UV-10, UV-11, or UV-12 compound given by the oral route (intragastric via oral gavage). 2. After dosing, mice were returned to their cages and monitored for any distress related to dosing.
(§2) 1. Mice were observed through 13 days post infection (14 days total, 0-13 days post infection).
(§3) 2. Mice were weighed daily on an Ohause scale and the weights were recorded.
3. All animals had chips implanted that monitored the body temperature. The temperatures were recorded daily.
4. Survival and health of each mouse was evaluated three times a day using a scoring system of 1-7.
5. Mice were euthanized when scored at 5 or above (Very Sick; Very Rufftled Coat; Closed, inset eyes; Slow to no movement; Will return to upright position if put on its side; extremely lethargic).

[2] = test system: DENV2 Strain S221; assay: Survival analysis of UV-12 in A129 ADE model of dengue infection; type: in vivo, A129 mice; details: 100 mg/kg/dose orally 3x per day for 7 days, first dose 1 hr before IV challenge
Excerpt: Purpose: This study determined the efficacy of UV-12 in promoting survival of mice challenged with dengue virus. Compound were given by the oral route (3× per day intragastric via oral gavage—IG) for a total number of 7 days after the start of dosing. The experiment used the A129 ADE model of infection. (Prestwood T R, Morar M M, Zellweger R M, Miller R, May M M, Yauch L E, Lada S M. Shresta S. Gamma interferon (IFN-γ) receptor restricts systemic dengue virus replication and prevents paralysis in IFN-α/β receptor-deficient mice. J Virol. 2012 December; 86(23):12561-70.) Animals received the virus challenge dose ˜1 LD90 on day 0. The first dose was given 0.5-1 hr pre-virus challenge. Survival was measured until 30 days after infection.
Mice: Sex matched 5-6 weeks old A129 (129/SV IFN-α, -β receptor^−/−)
Iminosugar: Orally 3× day, (gavage (IG)) every 8 hours
Antibody and Iminosugar Compound were given simultaneously, then virus within 30 minutes
Antibody: 100 μg 2H2 (IgG2a anti-DENV1-4 prM) from ATCC, day 0 and day 1 in 40 ul
Virus: DENV2 Strain S221 (v512) (Zellweger R M, Prestwood T R, Shresta S.
Dose: 1E11 GE (genomic equivalents) per animal
Animal survival. Animals displaying severe illness (as determined by 20% weight loss, extreme lethargy, ruffled coat, or paralysis) are euthanized.
FIG. 5 presents results of this study. […]

[3] = test system: influenza A/Texas/36/91 (H1N1); assay: Efficacy of UV-12 and UV-28 against lethal INFV A/Texas/36/91 (H1N1) challenge in mice; type: in vivo, BALB/c mice; details: for % Survival / Mean Survival: ~1LD90 intranasal; for Health score recovery of infected mice: 100 mg/kg TID; for Weight recovery of infected mice: treated infected mice
Experimental: Study Summary: This study tested the ability of iminosugars UV-12 and UV-28 to protect mice from lethal influenza infection (˜1LD90 of influenza A/Texas/36/91 (H1N1) administered intranasally). Compounds were delivered 30-60 minutes prior to viral challenge via the oral (IG) route at 100 or 40 mg/kg and continued three times daily for 10 days. The mice used were ˜20 gram, 6-8 week old female BALB/c mice in groups of 10 for efficacy (a summary of the study groups is shown in Table 1). Temperature and weights were taken daily. Endpoint was day 14 post infection, death, or euthanasia. Animals displaying severe illness as determined by >30% weight loss, extreme lethargy, or paralysis were euthanized.
This study tested the ability of UV-12 and UV-28 to protect mice from lethal influenza infection. The mice used were 6-8 week old female BALB/c mice in groups of 10 (see Table 5 below). Mice were treated with 100 or 40 mg/kg three times daily (TID) via IG route starting approximately 30-60 minutes prior to challenge. Mice were challenged with ˜1 LD90 of influenza A/Texas/36/91 (H1N1) administered intranasally (IN). Endpoint was day 14 post infection, death, or euthanasia. Animals displaying severe illness as determined by >30% weight loss, extreme lethargy, or paralysis were euthanized. Temperature and weights were taken daily.
3. The groups of mice challenged with INFV were infected via intranasal (IN) inoculation with ˜1×LD90 in 100 μL of a 1:500 dilution of INFV in PBS under light anesthesia (Isoflurane).
1. Mice were treated with 100 or 40 mg/kg of test article given by the IG route in 100 μL of water (see Table 5 for dosing regimens) three times daily for 10 days.
as §2, §3
3. All animals had chips implanted at least 3 days prior to virus challenge that monitored the body temperature. The temperatures were recorded daily.
4. Survival and health of each mouse was evaluated once time a day using a scoring system of 1-7.
FIG. 1 is a plot presenting survival data of infected mice grouped by treatment. The survival data plotted in FIG. 1 were analyzed using the Mantel-Cox (Log rank) test in GraphPad Prism.

[4] = 100 mg/kg oral TID; for Survival without a viral challenge: uninfected, n=3
[5] = test system: H1N1; assay: Previous studies: oral UV-4B TID at 100 mg/kg against H1N1; type: in vivo; details: oral TID at 100 mg/kg
Experimental: as §1

Row | Structure (SMILES) | Survival versus untreated/vehicle control group [1] | Survival rate [1] [%] | Survival without a viral challenge [4] [%] | MTD [1] [days] | further results
1 | OCC1C(O)C(O)C(O)CN1CCCCCCCCC1CCCO1 (mixture of isomers) [UV-12] | significant increase in survival | 90 | 100 | – | Overall temperature and weight versus vehicle control ([1]; 100 mg/kg oral TID, infected mice): significant increases in overall temperature and weight; Survival compared to control animals [2]: increased survival; % Survival ([3]; 40 mg/kg TID IG for 10 days): 20%; Mean Survival ([3]; 40 mg/kg TID IG for 10 days): 9 days; % Survival ([3]; 100 mg/kg TID IG for 10 days): 100%; Mean Survival ([3]; 100 mg/kg TID IG for 10 days): >13 days; Health score recovery of infected mice ([3]; FIG. 4): fully recovered from the infection and returned to normal; Weight recovery of infected mice [3]: almost completely recovered; Recovery after dosing regimen completed, uninfected mice [4]: able to fully recover; Toxicity in the uninfected group [4]: mild toxicity with steady weight loss; Weight loss overall in uninfected mice [4]: ≤ 10%
2 | COCCCCCCCCCN1C[C@H](O)[C@@H](O)[C@H](O)[C@H]1CO [UV-4B, N-9-methoxynonyl-deoxynojirimycin, reference compound] | significant increase in survival | 100 | – | – | Efficacy against H1N1 [5]: resulted in efficacy; Signs of toxicity [5]: did not show any discernible signs of toxicity
3 | COCCCCCCCCC(=O)N1C[C@H](O)[C@@H](O)[C@H](O)[C@H]1CO [UV-8] | did not show any improvement in survival; also recorded: no significant difference from the vehicle control group | 30 | 100 | 10.5 | –
4 | COCCCCCCCOC(=O)N1C[C@H](O)[C@@H](O)[C@H](O)[C@H]1CO [UV-9] | did not show any improvement in survival | 0 | 100 | 7 | –
5 | COC(=O)CCCCCCCCN1C[C@H](O)[C@@H](O)[C@H](O)[C@H]1CO [UV-10] | did not show any improvement in survival | 0 | 100 | 7.5 | –
6 | OCCCCCCCCCN1C[C@H](O)[C@@H](O)[C@H](O)[C@H]1CO [UV-11] | did not show any improvement in survival | 0 | 100 | 8 | –
7 | COC(C)(C)CCCCCCCCN1C[C@H](O)[C@@H](O)[C@H](O)[C@H]1CO [UV-28] | – | – | – | – | % Survival ([3]; 40 mg/kg TID IG for 10 days): 60%; Mean Survival ([3]; 40 mg/kg TID IG for 10 days): >13 days; % Survival ([3]; 100 mg/kg TID IG for 10 days): 100%; Mean Survival ([3]; 100 mg/kg TID IG for 10 days): >13 days; Health score recovery of infected mice ([3]; FIG. 4): never recovered their health score; Toxicity compared (health scores) ([3]; FIG. 4): more toxic than UV-12; Weight recovery of infected mice [3]: did not recover their weight as well
